The results in this text go back to PubChem BioAssay (NCI).

Some test systems named below: A498 renal; SR leukemia; NCI/ADR-RES ovarian; UACC-62 melanoma; MOLT-4 leukemia; ACHN renal; SF-295 CNS; HS 578T breast; RXF 393 renal; HCC-2998 colon.
What all share (assay): NCI-60 cell line screen, 48 h

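The compound was tested at five concentrations on cells cultured in 96-well plates, with a 48-hour exposure period. The concentration for 50% growth inhibition is given as GI50. TGI marks complete inhibition of growth.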

Take `CCN(CC)CCN1C(=O)c2cccc3c(-c4ccc5c(c4)ncn5C4CCCCC4)ccc(c23)C1=O`: the GI50 is 1.65 µM in the test with A498 renal; 0.414 µM in the test on SR leukemia; 1.45 µM in the test with NCI/ADR-RES ovarian; 1.56 µM in the test with UACC-62 melanoma; 1.1 µM with MOLT-4 leukemia; 1.16 µM in the test on ACHN renal. Moreover, the GI50 in the test on SF-295 CNS was 1.18 µM. In addition, the TGI stood at 3.22 µM in the test with A498 renal; 2.06 µM with SR leukemia; 4.26 µM in the test with NCI/ADR-RES ovarian; 3.03 µM with UACC-62 melanoma; 3.88 µM with MOLT-4 leukemia; 2.96 µM in the test with ACHN renal. The compound further showed a TGI in the test on SF-295 CNS of 2.69 µM.
With `O=C1CCc2c3c(c4c([nH]c5ccccc54)c2CC1)C(=O)NC3=O`, the TGI is greater than 100 µM in the test with HS 578T breast; 13.5 µM with A498 renal; 32.2 µM in the test on RXF 393 renal; greater than 100 µM in the test with HCC-2998 colon; greater than 100 µM with NCI/ADR-RES ovarian; 42.8 µM in the test with UACC-62 melanoma. In addition, the figures for the TGI in the test with MOLT-4 leukemia, in the test on ACHN renal and in the test with SF-295 CNS were 4.05 µM, 24.7 µM and 33.5 µM, respectively.
In the case of `CC(=O)OCC1C(C(C)OC(C)=O)CCC2C1CCC1(C)C(OC(C)=O)CCC21` (centres undefined), the TGI in the test with A498 renal was 41.4 µM; with SR leukemia, greater than 100 µM; in the test with HCC-2998 colon, 33.5 µM; with NCI/ADR-RES ovarian it was 44.9 µM; with UACC-62 melanoma, 26.3 µM; in the test with MOLT-4 leukemia it was 41.8 µM. Besides, the values for the TGI in the test on ACHN renal and with SF-295 CNS were 28.3 µM and 41.4 µM, respectively.
Take `CSCCC(NC(=O)C(Cc1ccccc1)NC(=O)CNC(=O)CNC(=O)C(N)Cc1ccc(O)cc1)C(=O)O` (centres undefined): the TGI with A498 renal, in the test with RXF 393 renal, in the test on HCC-2998 colon, in the test with NCI/ADR-RES ovarian, with UACC-62 melanoma and in the test with MOLT-4 leukemia was greater than 100 µM each time. The TGI with SF-295 CNS is greater than 100 µM.
Regarding `CSc1ccc2c(c1)c(CCN)c(C)n2Cc1ccc(Cl)c(Cl)c1`, the GI50 was 2.05 µM with HS 578T breast, 1.66 µM with RXF 393 renal, 1.59 µM in the test on ACHN renal and 1.69 µM with SF-295 CNS. Also, the TGI in the test with HS 578T breast was determined as 4.8 µM; with RXF 393 renal, 3.12 µM; in the test with ACHN renal it was 3.08 µM; with SF-295 CNS, 3.22 µM.
Consider `CC(/C=C/c1ncccc1OCCCCCC(=O)O)=N\NC1=NCCN1`, for which the TGI in the test on RXF 393 renal, in the test with SR leukemia, in the test on HCC-2998 colon, with UACC-62 melanoma, with MOLT-4 leukemia and in the test with ACHN renal was greater than 100 µM each time. In the test with SF-295 CNS, the TGI was greater than 100 µM.
As to `COCCO`, the TGI in the test with A498 renal, in the test with RXF 393 renal, with HCC-2998 colon, with NCI/ADR-RES ovarian, in the test on UACC-62 melanoma and with MOLT-4 leukemia was greater than 100 µM throughout. In the test with SF-295 CNS, the TGI is greater than 100 µM.
`O=C(N/N=C(/COc1cccc(Cl)c1)N=Cc1ccncc1)c1ccncc1`: the TGI in the test on HS 578T breast, in the test on A498 renal, with RXF 393 renal, in the test with HCC-2998 colon, in the test on NCI/ADR-RES ovarian and in the test on UACC-62 melanoma was greater than 100 µM in each case. Moreover, the TGI in the test on MOLT-4 leukemia, with ACHN renal and with SF-295 CNS was greater than 100 µM in each case.
On to `O=C(N=Nc1ccc([N+](=O)[O-])cc1)NNc1ccc([N+](=O)[O-])cc1`, for which the TGI in the test on A498 renal worked out at 26.6 µM; with SR leukemia it was 72.6 µM; with HCC-2998 colon, 27.3 µM; with UACC-62 melanoma, 22.2 µM; in the test on MOLT-4 leukemia, 40.8 µM; in the test with ACHN renal, 38.8 µM.
Turning to `c1ccc(Cc2cccc3cc(-c4ccc(-c5ccccc5)cc4)[nH]c23)cc1`, the TGI is 84 µM with HS 578T breast; 47 µM in the test on SR leukemia; greater than 100 µM with HCC-2998 colon; greater than 100 µM with NCI/ADR-RES ovarian; greater than 100 µM with UACC-62 melanoma; greater than 100 µM in the test with MOLT-4 leukemia. Also, the TGI in the test on ACHN renal and in the test on SF-295 CNS was greater than 100 µM each time.
With `CC1=C(C)C(=O)OC(C(C)(O)C2(O)CCC3(O)C4CC(Cl)C5(O)C(O)C=CC(=O)C5(C)C4CCC32C)C1` (centres undefined), the TGI with HS 578T breast was greater than 100 µM; in the test with A498 renal, greater than 100 µM; in the test on RXF 393 renal, 56.1 µM; in the test with SR leukemia, 37.1 µM; in the test with HCC-2998 colon, greater than 100 µM; in the test with UACC-62 melanoma it was greater than 100 µM. Also, the TGI was 32.8 µM in the test on MOLT-4 leukemia, greater than 100 µM in the test with ACHN renal and greater than 100 µM in the test with SF-295 CNS.
Turning to `Nc1[nH]c(=O)nc2sc3c(c12)CCCC3`, the TGI in the test on HS 578T breast was 71.9 µM; with RXF 393 renal, greater than 100 µM; in the test with SR leukemia, greater than 100 µM; in the test with HCC-2998 colon it was greater than 100 µM; in the test with NCI/ADR-RES ovarian it was greater than 100 µM; with UACC-62 melanoma, greater than 100 µM. The TGI in the test on MOLT-4 leukemia and with ACHN renal was greater than 100 µM in each case.
In the case of `C#CCNC(=O)CCC(N)C(=O)O` (centres undefined), the TGI with A498 renal, in the test on RXF 393 renal, with HCC-2998 colon, with NCI/ADR-RES ovarian, in the test with UACC-62 melanoma and in the test on MOLT-4 leukemia was greater than 100 µM in each case. This compound also registered a TGI in the test on SF-295 CNS greater than 100 µM.
As for `COc1cc(N=C(N)N=C(N)N)c2ncccc2c1`, the TGI in the test with HS 578T breast, in the test with A498 renal, in the test on RXF 393 renal, in the test on HCC-2998 colon, in the test on NCI/ADR-RES ovarian and in the test on UACC-62 melanoma was greater than 100 µM each time. Besides, the TGI in the test with ACHN renal and in the test on SF-295 CNS was greater than 100 µM each time.
Consider `COc1cc(/C=C2\C(=O)N(c3cccc(Cl)c3)C(c3ccccc3)S2(=O)=O)cc(OC)c1OC` (centres undefined), for which the TGI in the test on HS 578T breast, in the test with A498 renal, with RXF 393 renal, in the test with HCC-2998 colon, in the test with NCI/ADR-RES ovarian and with UACC-62 melanoma was greater than 100 µM throughout. The results for the TGI in the test on MOLT-4 leukemia, with ACHN renal and with SF-295 CNS were 98.8 µM, greater than 100 µM and greater than 100 µM, respectively.
